# Reference: patent US8791132B2, “Compounds and methods for treatment of hypertension” (Medivation Technologies, Inc., priority 2011, dated 2014)
# Where “and” joins values, the source holds several entries; their conditions need not be identical. Identical values can stand only once. Like-named read-outs stand apart in the source and are kept apart here.
# Columns and labels:
# [1] = molecular target: T1, human recombinant adrenergic α2B receptor (Homo sapiens, UniProt P18089); test: Radioligand binding, adrenergic α2B ([3H]Rauwolscine); conditions: for Percentage inhibition of ligand binding, Adrenergic α2B: 0.03 μM compound; for Percentage inhibition of ligand binding, Adrenergic α2B (0.03 μM): compound at 0.03 μM; for Percentage inhibition of ligand binding, Adrenergic α2B (0.03 μM) / inhibition at 0.03 µM: [3H]Rauwolscine, repeat datapoints each shown; for inhibition at 0.03 µM: read-out: Percentage inhibition of ligand binding, Adrenergic α2B (0.03 μM), compound at 0.03 μM
# T1 construct: expressed in transfected cells; host or cells: CHO-K1
# T1 sequence (P18089 1-450): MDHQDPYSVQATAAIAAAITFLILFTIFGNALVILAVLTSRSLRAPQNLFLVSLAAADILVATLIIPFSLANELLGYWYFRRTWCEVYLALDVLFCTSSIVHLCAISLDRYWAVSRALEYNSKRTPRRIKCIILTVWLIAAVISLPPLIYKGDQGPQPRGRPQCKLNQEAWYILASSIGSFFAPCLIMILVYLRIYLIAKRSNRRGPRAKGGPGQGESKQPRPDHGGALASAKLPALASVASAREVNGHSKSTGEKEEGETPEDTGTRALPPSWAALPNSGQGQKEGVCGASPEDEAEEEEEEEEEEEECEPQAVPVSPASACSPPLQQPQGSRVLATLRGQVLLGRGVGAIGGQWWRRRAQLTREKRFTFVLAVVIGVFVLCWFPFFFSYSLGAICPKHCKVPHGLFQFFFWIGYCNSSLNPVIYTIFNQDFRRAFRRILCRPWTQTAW
# Outline: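 Membranes from CHO-K1 cells expressing human recombinant α2B, in 50 mM Tris-HCl pH 7.4, 12.5 mM MgCl2, 1 mM EDTA, 0.2% BSA, incubated with compound and 2.5 nM [3H]Rauwolscine, 60 min, 25 °C.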
# [2] = molecular target: T2, human recombinant adrenergic α2A receptor (Homo sapiens, UniProt P08913); test: Radioligand binding, adrenergic α2A ([3H]MK-912); conditions: for Percentage inhibition of ligand binding, Adrenergic α2A / Percentage inhibition of ligand binding, Adrenergic α2A (0.1 μM): 0.1 µM; for Percentage inhibition of ligand binding, Adrenergic α2A (0.1 μM): compound at 0.1 μM
# T2 construct: expressed in transfected cells; host or cells: insect Sf9 cells
# T2 sequence (P08913 1-465): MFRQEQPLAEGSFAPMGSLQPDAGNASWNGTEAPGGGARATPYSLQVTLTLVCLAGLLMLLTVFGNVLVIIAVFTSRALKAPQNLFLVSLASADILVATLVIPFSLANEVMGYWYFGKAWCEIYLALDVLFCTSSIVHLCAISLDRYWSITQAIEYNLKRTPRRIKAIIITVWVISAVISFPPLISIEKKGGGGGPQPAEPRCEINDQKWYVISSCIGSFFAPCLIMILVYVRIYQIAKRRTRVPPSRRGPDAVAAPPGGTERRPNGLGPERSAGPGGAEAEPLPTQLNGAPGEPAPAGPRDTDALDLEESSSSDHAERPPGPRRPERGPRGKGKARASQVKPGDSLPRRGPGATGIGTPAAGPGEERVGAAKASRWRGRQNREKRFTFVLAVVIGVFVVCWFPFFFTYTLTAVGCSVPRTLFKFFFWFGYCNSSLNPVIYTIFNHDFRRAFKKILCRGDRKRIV
# Outline: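 Displacement of 1 nM [3H]MK-912 from receptor produced in insect Sf9 cells was measured after 60 min at 25 °C. Readout: percent inhibition of specific binding.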
# [3] = molecular target: T3, rat adrenergic α1B receptor (Rattus norvegicus, UniProt P15823); test: Radioligand binding, adrenergic α1B ([3H]Prazosin); conditions: for Percentage inhibition of ligand binding, Adrenergic α1B: 0.1 μM compound; for Percentage inhibition of ligand binding, Adrenergic α1B (0.1 μM): compound at 0.1 μM; for inhibition at 0.1 µM: read-out: Percentage inhibition of ligand binding, Adrenergic α1B (0.1 μM), compound at 0.1 μM
# T3 construct: rat adrenergic α1B receptor obtained from Wistar Rat liver; from tissue; host or cells: Wistar rat liver
# T3 sequence (P15823 1-515): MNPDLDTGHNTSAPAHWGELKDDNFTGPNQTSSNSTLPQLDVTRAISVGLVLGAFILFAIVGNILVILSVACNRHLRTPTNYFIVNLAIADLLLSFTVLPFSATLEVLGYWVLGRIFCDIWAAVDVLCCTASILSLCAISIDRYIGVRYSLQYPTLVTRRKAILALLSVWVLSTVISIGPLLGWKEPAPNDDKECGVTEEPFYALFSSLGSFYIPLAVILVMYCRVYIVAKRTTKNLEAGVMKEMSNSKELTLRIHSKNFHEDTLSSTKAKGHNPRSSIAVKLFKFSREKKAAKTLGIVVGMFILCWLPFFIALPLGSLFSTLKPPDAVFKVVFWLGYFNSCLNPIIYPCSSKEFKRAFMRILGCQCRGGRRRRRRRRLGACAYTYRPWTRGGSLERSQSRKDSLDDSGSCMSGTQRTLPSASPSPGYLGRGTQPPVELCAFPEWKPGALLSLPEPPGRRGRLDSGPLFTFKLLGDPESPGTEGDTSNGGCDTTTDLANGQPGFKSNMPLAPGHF
# Outline: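 Rat α1B receptor from Wistar rat liver was incubated with 0.25 nM [3H]prazosin for 60 min at 25 °C in 50 mM Tris-HCl, pH 7.4, 0.5 mM EDTA. Non-specific binding was defined with 10 μM phentolamine. Bound radioligand was measured by filtration and counting, reported as percent inhibition of specific binding.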
# [4] = [3H]MK-912, repeat datapoints each shown
# [5] = [3H]Prazosin, repeat datapoints each shown, 0.1 µM
# [6] = [3H]Prazosin, repeat datapoints each shown
"Percentage inhibition of ligand binding, Adrenergic α2B (0.03 μM) ([1]; 0.03 µM)","Percentage inhibition of ligand binding, Adrenergic α2A (0.1 μM) [2, 4]","Percentage inhibition of ligand binding, Adrenergic α1B (0.1 μM) [3, 5]",SMILES,other results
–,–,–,"Cc1ccc2c(c1)c1c(n2C(C)C(O)c2ccccc2)CCN(C)C1 (single isomer, unassigned) [II-95b, 2-(2,8-dimethyl-1,2,3,4-tetrahydro-pyrido[4,3-b]indol-5-yl)1-phenyl-propan-1-ol]","Percentage inhibition of ligand binding, Adrenergic α2B ([1]; 0.03 µM): 12%; Percentage inhibition of ligand binding, Adrenergic α2A ([2]; 0.1 μM compound): −1%; Percentage inhibition of ligand binding, Adrenergic α1B ([3]; 0.1 µM): −1%"
–,–,–,"Cc1cnc2c(c1)c1c(n2CC(C)(O)c2cccnc2)CCN(C)C1 (single isomer, unassigned) [II-99a]","Percentage inhibition of ligand binding, Adrenergic α2B ([1]; 0.03 µM): 49%; inhibition at 0.1 µM ([2]; 0.1 μM compound, read-out: Percentage inhibition of ligand binding, Adrenergic α2A): 24%; Percentage inhibition of ligand binding, Adrenergic α1B ([3]; 0.1 µM): 12%"
–,–,–,"Cc1cnc2c(c1)c1c(n2CC(C)(O)c2cccnc2)CCN(C)C1 (single isomer, unassigned) [II-99b]","Percentage inhibition of ligand binding, Adrenergic α2B ([1]; 0.03 µM): 7%; Percentage inhibition of ligand binding, Adrenergic α2A ([2]; 0.1 μM compound): 16%; Percentage inhibition of ligand binding, Adrenergic α1B ([3]; 0.1 µM): 5%"
–,–,–,"Cc1cnc2c(c1)c1c(n2CC(O)c2ccc(C)nc2)CCN(C)C1 (single isomer, unassigned) [II-100b]","Percentage inhibition of ligand binding, Adrenergic α2B ([1]; 0.03 µM): 1%; Percentage inhibition of ligand binding, Adrenergic α2A ([2]; 0.1 μM compound): 4%; Percentage inhibition of ligand binding, Adrenergic α1B [3]: 24%"
27%,−2%,13%,"Cc1cnc2c(c1)c1c(n2CC(C)(O)c2ccc(C(F)(F)F)nc2)CCN(C)C1 (single isomer, unassigned) [II-108a]",–
11%,−6%,−2%,"Cc1cnc2c(c1)c1c(n2CC(C)(O)c2ccc(C(F)(F)F)nc2)CCN(C)C1 (single isomer, unassigned) [II-108b]",–
41%,2%,27%,"CN1CCc2c(c3cc(Cl)cnc3n2CC(C)(O)c2ccc(C(F)(F)F)nc2)C1 (single isomer, unassigned) [II-109a]",–
2%,−10%,5%,"CN1CCc2c(c3cc(Cl)cnc3n2CC(C)(O)c2ccc(C(F)(F)F)nc2)C1 (single isomer, unassigned) [II-109b]",–
–,12%,45%,"Cc1cnc2c(c1)c1c(n2CC(O)c2ccc(C#N)nc2)CCN(C)C1 (single isomer, unassigned) [II-114a, 5-[2-(3,6-dimethyl-5,6,7,8-tetrahydro-1,6,9-triaza-fluoren-9-yl)-1-hydroxy-ethyl]-pyridine-2-carbonitrile]",inhibition at 0.03 µM [1]: 40%
–,−5%,7%,"Cc1cnc2c(c1)c1c(n2CC(O)c2ccc(C#N)nc2)CCN(C)C1 (single isomer, unassigned) [II-114b, 5-[2-(3,6-dimethyl-5,6,7,8-tetrahydro-1,6,9-triaza-fluoren-9-yl)-1-hydroxy-ethyl]-pyridine-2-carbonitrile]","Percentage inhibition of ligand binding, Adrenergic α2B (0.03 μM) [1]: 40%"
–,65%,–,"Cc1ccc2c(c1)c1c(n2CC(O)c2ccc(F)cc2)CCN2CCCC12 (single isomer, unassigned) [II-120a, 1-(4-fluoro-phenyl)-2-(9-methyl-1,2,3,4,5,10c-hexahydro-3a,6-diaza-cyclopenta[c]fluoren-6-yl)-ethanol]","inhibition at 0.03 µM [1]: 101%; inhibition at 0.1 µM [3, 6]: 99%"
98%,98%,100%,"Cc1ccc2c(c1)c1c(n2CC(O)c2ccc(F)cc2)CCN2CCCC12 (single isomer, unassigned) [II-120b, 1-(4-fluoro-phenyl)-2-(9-methyl-1,2,3,4,5,10c-hexahydro-3a,6-diaza-cyclopenta[c]fluoren-6-yl)-ethanol]",–
104%,92%,98%,"Cc1ccc2c(c1)c1c(n2CC(C)(O)c2ccc(F)cc2)CCN2CCCC12 (single isomer, unassigned) [II-121a, 2-(4-fluoro-phenyl)-1-(9-methyl-1,2,3,4,5,10c-hexahydro-3a,6-diaza-cyclopenta[c]fluoren-6-yl)-propan-2-ol]","inhibition at 0.03 µM [1]: 103%; Ki [2]: 4.52 nM; inhibition at 0.03 µM ([2]; read-out: Percentage inhibition of ligand binding, Adrenergic α2A (0.03 μM), compound at 0.03 μM, [3H]MK-912, repeat datapoints each shown): 65%; inhibition at 0.1 µM ([2]; read-out: Percentage inhibition of ligand binding, Adrenergic α2A (0.1 μM), compound at 0.1 μM, [3H]MK-912, repeat datapoints each shown): 91%; inhibition at 0.03 µM ([3]; read-out: Percentage inhibition of ligand binding, Adrenergic α1B (0.03 μM), compound at 0.03 μM, [3H]Prazosin, repeat datapoints each shown): 90%; inhibition at 0.1 µM [3, 6]: 97%"
100% and 103%,80% and 85%,93% and 96%,"Cc1ccc2c(c1)c1c(n2CC(C)(O)c2ccc(F)cc2)CCN2CCCC12 (single isomer, unassigned) [II-121b, 2-(4-fluoro-phenyl)-1-(9-methyl-1,2,3,4,5,10c-hexahydro-3a,6-diaza-cyclopenta[c]fluoren-6-yl)-propan-2-ol]","Ki ([1]; read-out: Ki α2B): 0.22 nM; Ki [2]: 9.18 nM; Percentage inhibition of ligand binding, Adrenergic α2A (0.03 μM) ([2]; compound at 0.03 μM, [3H]MK-912, repeat datapoints each shown, 0.03 µM): 54%; Percentage inhibition of ligand binding, Adrenergic α1B (0.03 μM) ([3]; compound at 0.03 μM, [3H]Prazosin, repeat datapoints each shown, 0.03 µM): 77%"
62%,16%,–,"Cc1cc2c3c(n(CC(C)(O)c4cccnc4)c2cc1Cl)CCN(C)C3 (single isomer, unassigned) [II-123a, 1-(7-chloro-2,8-dimethyl-3,4-dihydro-1H-pyrido[4,3-b]indol-5(2H)-yl)-2-(pyridin-3-yl)propan-2-ol]","inhibition at 0.1 µM [3, 6]: 41%"

SMILES,"Percentage inhibition of ligand binding, Adrenergic α2B (0.03 μM) ([1]; 0.03 µM)","Percentage inhibition of ligand binding, Adrenergic α2A (0.1 μM) [2, 4]","Percentage inhibition of ligand binding, Adrenergic α1B (0.1 μM) [3, 5]",other results
"CC(O)(Cn1c2c(c3cc(Cl)ccc31)CN(C1CCC1)CC2)c1cccnc1 (single isomer, unassigned) [II-118b]",−3%,5%,11%,–
